The test system of assay [1] is p-IKKα levels in L363 (NIK translocated multiple myeloma) cells. Nature of the assay: Effect of compounds on p-IKKα levels in L363 cells (AlphaLISA SureFire Ultra). The class given is cell-based. Particulars: Homo sapiens, L-363; L363 cells, BAFF stimulated, MG132, 6 h; average of values; read-out: Assay 2 IC50. The method, boiled down:
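L363 myeloma cells were BAFF-stimulated (250 ng/ml) overnight in DMEM/0.5% BSA, then exposed 6 h at 37° C to compound (11-point 1:3 series, 0.3% DMSO) with BAFF plus 10 uM MG132. p-IKKα (Ser 176/180) was read by AlphaLISA SureFire Ultra in lysates. IC50 came from sigmoidal fits normalized to stimulated and unstimulated controls.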

The target in assay [2] is Recombinant Human NF-Kappab-Inducing Kinase (NIK/MAP3K14) (Homo sapiens, UniProt Q99558). The experiment in a line: Inhibition of auto-phosphorylation of recombinant human NIK/MAP3K14 (AlphaScreen). It counts as biochemical. To be noted: NIK/MAP3K14 auto-phosphorylation, 5 microM ATP, 1 nM enzyme, 2 h at 25° C.; average of values; read-out: Assay 1 IC50. An outline of the steps:
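GST-tagged NIK (1 nM) auto-phosphorylation with 5 µM ATP in Tris pH 7.5/MgCl2 buffer, 0.7% DMSO, 2 h at 25 °C. Phospho-IKK Ser176/180 antibody detected by AlphaScreen beads. Signal normalized to full-enzyme and no-ATP controls; IC50 from sigmoidal fit of % inhibition vs log concentration.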
Background: Bead proximity is the source of the signal in Alpha formats.

Chain of Recombinant Human NF-Kappab-Inducing Kinase (NIK/MAP3K14) (Q99558 whole entry): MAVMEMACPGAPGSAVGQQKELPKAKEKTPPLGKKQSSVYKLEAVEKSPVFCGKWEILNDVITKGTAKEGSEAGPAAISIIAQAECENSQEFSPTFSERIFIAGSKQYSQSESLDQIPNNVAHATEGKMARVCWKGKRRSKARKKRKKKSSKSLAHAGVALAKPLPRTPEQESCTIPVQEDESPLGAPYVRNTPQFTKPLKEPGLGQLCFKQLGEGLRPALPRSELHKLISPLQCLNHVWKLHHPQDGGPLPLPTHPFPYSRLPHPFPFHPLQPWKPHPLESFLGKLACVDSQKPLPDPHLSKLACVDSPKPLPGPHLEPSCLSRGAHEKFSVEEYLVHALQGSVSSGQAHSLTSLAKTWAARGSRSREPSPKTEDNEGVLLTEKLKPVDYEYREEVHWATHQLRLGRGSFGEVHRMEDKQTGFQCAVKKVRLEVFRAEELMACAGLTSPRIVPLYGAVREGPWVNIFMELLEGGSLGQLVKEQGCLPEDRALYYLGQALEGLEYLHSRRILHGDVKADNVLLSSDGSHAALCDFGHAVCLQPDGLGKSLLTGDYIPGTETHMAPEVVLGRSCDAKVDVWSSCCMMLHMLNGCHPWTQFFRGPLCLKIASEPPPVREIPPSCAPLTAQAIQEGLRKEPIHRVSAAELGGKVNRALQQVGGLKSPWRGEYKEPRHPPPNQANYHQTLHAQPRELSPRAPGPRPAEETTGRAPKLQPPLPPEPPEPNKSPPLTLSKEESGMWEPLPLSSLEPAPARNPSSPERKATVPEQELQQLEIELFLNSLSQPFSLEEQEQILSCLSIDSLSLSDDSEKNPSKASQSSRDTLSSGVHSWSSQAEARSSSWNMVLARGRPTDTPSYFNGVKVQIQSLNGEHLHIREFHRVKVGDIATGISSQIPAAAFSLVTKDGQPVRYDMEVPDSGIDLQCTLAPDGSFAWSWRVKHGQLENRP

For the compound `Cc1n[nH]c(C)c1Nc1cnc(-c2cccc(-c3cc([C@]4(O)CCN(C)C4=O)on3)c2)nc1C(N)=O` [Example 142, (R)-5-((3,5-Dimethyl-1H-pyrazol-4-yl)amino)-2-(3-(5-(3-hydroxy-1-methyl-2-oxopyrrolidin-3-yl)isoxazol-3-yl)phenyl)pyrimidine-4-carboxamide], the figures for the IC50 in assay [1] and in assay [2] were 100 to 500 nM and < 100 nM, respectively.
The corresponding values for `CN1CC[C@@](O)(c2cc(-c3cccc(-c4cc5cn[nH]c5c(C(N)=O)n4)c3)no2)C1=O` [Example 143, (R)-5-(3-(5-(3-hydroxy-1-methyl-2-oxopyrrolidin-3-yl)isoxazol-3-yl)phenyl)-1H-pyrazolo[3,4-c]pyridine-7-carboxamide] are < 100 nM and < 100 nM.
The corresponding values for `COc1cn(C)nc1Nc1cnc(-c2cccc(-c3cc([C@]4(O)CCN(C)C4=O)on3)c2)nc1C(N)=O` [Example 144, (R)-2-(3-(5-(3-Hydroxy-1-methyl-2-oxopyrrolidin-3-yl)isoxazol-3-yl)phenyl)-5-((4-methoxy-1-methyl-1H-pyrazol-3-yl)amino)pyrimidine-4-carboxamide] are < 100 nM and < 100 nM.
For `CN1CC[C@@](O)(c2cc(-c3cccc(-c4ncc(Nc5cnn(CC(F)(F)F)c5)c(C(N)=O)n4)c3)no2)C1=O` [Example 145, (R)-2-(3-(5-(3-Hydroxy-1-methyl-2-oxopyrrolidin-3-yl)isoxazol-3-yl)phenyl)-5-((1-(2,2,2-trifluoroethyl)-1H-pyrazol-4-yl)amino)pyrimidine-4-carboxamide], the half-inhibitory concentration (IC50) in assay [1] and in assay [2] was < 100 nM each time.
With `CN1CC[C@@](O)(c2cc(-c3cccc(-c4nccc(C(N)=O)n4)c3)no2)C1=O` [Example 146, (R)-2-(3-(5-(3-hydroxy-1-methyl-2-oxopyrrolidin-3-yl)isoxazol-3-yl)phenyl)pyrimidine-4-carboxamide], the results for the IC50 in assay [1] and in assay [2] were > 501 nM and < 100 nM, respectively.
Taken in the same sequence, the figures for `CN1CC[C@@](O)(c2cc(-c3cccc(-c4cncc(C(N)=O)n4)c3)no2)C1=O` [Example 147, (R)-6-(3-(5-(3-Hydroxy-1-methyl-2-oxopyrrolidin-3-yl)isoxazol-3-yl)phenyl)pyrazine-2-carboxamide] were > 501 nM and < 100 nM.
Taken in the same sequence, the figures for `CN1CC[C@@](O)(c2cc(-c3cccc(-c4cccc(C(N)=O)n4)c3)no2)C1=O` [Example 148, (R)-6-(3-(5-(3-Hydroxy-1-methyl-2-oxopyrrolidin-3-yl)isoxazol-3-yl)phenyl)picolinamide] were > 501 nM and < 100 nM.
Taken in the same sequence, the figures for `CN1CC[C@](O)(c2cc(-c3cccc(-c4cccc(C(N)=O)n4)c3)no2)C1=O` [Example 149, (S)-6-(3-(5-(3-Hydroxy-1-methyl-2-oxopyrrolidin-3-yl)isoxazol-3-yl)phenyl)picolinamide] were > 501 nM and > 501 nM.
Turning to `Cc1ccc(-c2cccc(C(N)=O)n2)cc1-c1cc([C@]2(O)CCN(C)C2=O)on1` [Example 150, (R)-6-(3-(5-(3-Hydroxy-1-methyl-2-oxopyrrolidin-3-yl)isoxazol-3-yl)-4-methylphenyl)picolinamide], the IC50 in assay [1] and in assay [2] was > 501 nM in each case.
Turning to `Cc1ccc(-c2cc([C@]3(O)CCN(C)C3=O)on2)cc1-c1cccc(C(N)=O)n1` [Example 151, (R)-6-(5-(5-(3-Hydroxy-1-methyl-2-oxopyrrolidin-3-yl)isoxazol-3-yl)-2-methylphenyl)picolinamide], the IC50 in assay [1] and in assay [2] was > 501 nM each time.
For the compound `Cc1cc(-c2cc([C@]3(O)CCN(C)C3=O)on2)cc(-c2cccc(C(N)=O)n2)c1` [Example 152, (R)-6-(3-(5-(3-Hydroxy-1-methyl-2-oxopyrrolidin-3-yl)isoxazol-3-yl)-5-methylphenyl)picolinamide], the IC50 (in general, the concentration that gives 50% inhibition) was > 501 nM in assay [1] and < 100 nM in assay [2].
On to `COc1cc(-c2cc([C@]3(O)CCN(C)C3=O)on2)cc(-c2cccc(C(N)=O)n2)c1` [Example 153, (R)-6-(3-(5-(3-Hydroxy-1-methyl-2-oxopyrrolidin-3-yl)isoxazol-3-yl)-5-methoxyphenyl)picolinamide], for which the figures for the IC50 in assay [1] and in assay [2] were > 501 nM and < 100 nM, respectively.
The corresponding values for `Cc1ccc(-c2cccc(-c3cc([C@]4(O)CCN(C)C4=O)on3)c2)nc1C(N)=O` [Example 154, (R)-6-(3-(5-(3-Hydroxy-1-methyl-2-oxopyrrolidin-3-yl)isoxazol-3-yl)phenyl)-3-methylpicolinamide] are > 501 nM and < 100 nM.
For `Cc1cc(C(N)=O)nc(-c2cccc(-c3cc([C@]4(O)CCN(C)C4=O)on3)c2)c1` [Example 155, (R)-6-(3-(5-(3-Hydroxy-1-methyl-2-oxopyrrolidin-3-yl)isoxazol-3-yl)phenyl)-4-methylpicolinamide], the IC50 in assay [1] is 100 to 500 nM; in assay [2], < 100 nM.
Taken in the same sequence, the figures for `Cc1ccc(C(N)=O)nc1-c1cccc(-c2cc([C@]3(O)CCN(C)C3=O)on2)c1` [Example 156, (R)-6-(3-(5-(3-hydroxy-1-methyl-2-oxopyrrolidin-3-yl)isoxazol-3-yl)phenyl)-5-methylpicolinamide] were > 501 nM and 100 to 500 nM.
`CN1CC[C@@](O)(c2cc(-c3cccc(-c4cccc(C(N)=O)c4)c3)no2)C1=O` [Example 157, (R)-3′-(5-(3-Hydroxy-1-methyl-2-oxopyrrolidin-3-yl)isoxazol-3-yl)-[1,1′-biphenyl]-3-carboxamide]: the IC50 in assay [1] and in assay [2] was > 501 nM in each case.
For the compound `CN1CC[C@@](O)(c2cc(-c3cccc(-c4nc(C(N)=O)c5ccc(F)cc5n4)c3)no2)C1=O` [Example 158, (R)-7-Fluoro-2-(3-(5-(3-hydroxy-1-methyl-2-oxopyrrolidin-3-yl)isoxazol-3-yl)phenyl)quinazoline-4-carboxamide], the IC50 in assay [1] was > 501 nM; in assay [2], < 100 nM.
The corresponding values for `Cc1nc(N)c2nc(-c3ccc(-c4cc([C@]5(O)CCN(C)C5=O)on4)o3)ccc2n1` [Example 159, (R)-3-(3-(5-(4-Amino-2-methylpyrido[3,2-d]pyrimidin-6-yl)furan-2-yl)isoxazol-5-yl)-3-hydroxy-1-methylpyrrolidin-2-one] are 100 to 500 nM and < 100 nM.
The corresponding values for `CN1CC[C@@](O)(c2cc(-c3cccc(-c4nc(C(N)=O)c5ccc(F)cc5n4)c3)on2)C1=O` [Example 160, (R)-7-Fluoro-2-(3-(3-(3-hydroxy-1-methyl-2-oxopyrrolidin-3-yl)isoxazol-5-yl)phenyl)quinazoline-4-carboxamide] are > 501 nM and < 100 nM.
The corresponding values for `CN1CC[C@@](O)(c2cc(-c3cccc(-c4ccnc(C(N)=O)n4)c3)no2)C1=O` [Example 162, (R)-4-(3-(5-(3-Hydroxy-1-methyl-2-oxopyrrolidin-3-yl)isoxazol-3-yl)phenyl)pyrimidine-2-carboxamide] are > 501 nM and < 100 nM.
Take `CN1CC[C@@](O)(c2cc(-c3cccc(-c4c[nH]c5nccnc45)c3)no2)C1=O` [Example 163, (R)-3-(3-(3-(5H-Pyrrolo[2,3-b]pyrazin-7-yl)phenyl)isoxazol-5-yl)-3-hydroxy-1-methylpyrrolidin-2-one]: the IC50 in assay [1] is > 501 nM; in assay [2], < 100 nM.

These data come from US20250282785A1, “PYRROLIDINONE DERIVATIVES AS INHIBITORS OF NF KAPPA B INDUCING KINASE” (priority 2022, published 2025).
